Laboratory results as given in the supplement of paper PMC10307832.

Experiments:
Assay in all cases: relative viability (nuclei count vs DMSO), 5 days (fraction); higher = more cells survive
Zosuquidar + Tozasertib = compound: O[C@@H](COc1cccc2ncccc12)CN1CCN([C@@H]2c3ccccc3[C@@H]3[C@H](c4ccccc42)C3(F)F)CC1 [Zosuquidar] + Cc1cc(Nc2cc(N3CCN(C)CC3)nc(Sc3ccc(NC(=O)C4CC4)cc3)n2)n[nH]1 [Tozasertib] (partner 0.1 µM)
Method in brief: (§1)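 Relative viability was taken as the ratio of nuclei in treated wells to nuclei in vehicle wells. Lung cancer cell lines in 1536-well plates received compounds by pin tool one day after seeding, either one drug alone or a fixed anchor-drug dose plus five library-drug doses (not always all listed) in √10 steps. Nuclei were counted on 4× images after 5 days of treatment, and values are medians of duplicate plates.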

Kobe2602 + OSI-027 = compound: C1=CC(=CC=C1NC(=S)NNC2=C(C=C(C=C2[N+](=O)[O-])C(F)(F)F)[N+](=O)[O-])F [Kobe2602] + COc1cccc2cc(-c3nc([C@H]4CC[C@H](C(=O)O)CC4)n4ncnc(N)c34)[nH]c12 [OSI-027] (partner 0.5 µM)
Method in brief: as §1

Kobe2602 + Trametinib = compound: C1=CC(=CC=C1NC(=S)NNC2=C(C=C(C=C2[N+](=O)[O-])C(F)(F)F)[N+](=O)[O-])F [Kobe2602] + CC(=O)Nc1cccc(-n2c(=O)n(C3CC3)c(=O)c3c(Nc4ccc(I)cc4F)n(C)c(=O)c(C)c32)c1 [Trametinib] (partner 0.02 µM)
Method in brief: as §1

Zosuquidar + Linsitinib = compound: O[C@@H](COc1cccc2ncccc12)CN1CCN([C@@H]2c3ccccc3[C@@H]3[C@H](c4ccccc42)C3(F)F)CC1 [Zosuquidar] + C[C@]1(O)C[C@@H](c2nc(-c3ccc4ccc(-c5ccccc5)nc4c3)c3c(N)nccn32)C1 [Linsitinib] (partner 1 µM)
Method in brief: as §1

Cell Line	relative viability (Zosuquidar + Tozasertib; first compound 0.01 µM)	relative viability (Zosuquidar + Tozasertib; first compound 0.03162 µM)	relative viability (Zosuquidar + Tozasertib; first compound 0.1 µM)	relative viability (Zosuquidar + Tozasertib; first compound 0.3162 µM)	relative viability (Zosuquidar + Tozasertib; first compound 1 µM)	relative viability (Kobe2602 + OSI-027; first compound 0.2 µM)	relative viability (Kobe2602 + OSI-027; first compound 0.6325 µM)	relative viability (Kobe2602 + OSI-027; first compound 2 µM)	relative viability (Kobe2602 + OSI-027; first compound 20 µM)	relative viability (Kobe2602 + Trametinib; first compound 0.2 µM)	relative viability (Kobe2602 + Trametinib; first compound 0.6325 µM)	relative viability (Kobe2602 + Trametinib; first compound 2 µM)	relative viability (Kobe2602 + Trametinib; first compound 6.325 µM)	relative viability (Kobe2602 + Trametinib; first compound 20 µM)	relative viability (Zosuquidar + Linsitinib; first compound 0.01 µM)	relative viability (Zosuquidar + Linsitinib; first compound 0.03162 µM)	relative viability (Zosuquidar + Linsitinib; first compound 0.1 µM)	relative viability (Zosuquidar + Linsitinib; first compound 0.3162 µM)	relative viability (Zosuquidar + Linsitinib; first compound 1 µM)	relative viability (Kobe2602 + OSI-027; first compound 6.325 µM)
201T	0.876	0.907	0.888	0.993	0.854	0.815	0.802	0.764	0.603	0.711	0.715	0.741	0.771	0.677	1.06	1.01	0.892	0.961	1.01	
A549															0.766	0.571	0.416	0.53	0.564	
A-427	0.205	0.247	0.271	0.218	0.192	0.508	0.583	0.399	0.476	0.804	0.745	0.793	0.739	0.742	1.09	1.14	0.971	1.15	1.11	0.446
ABC-1	0.143	0.172	0.194	0.234	0.178	0.582	0.501		0.628						0.877	0.794	0.836	0.871	0.924	0.585
BEN	0.482	0.489	0.503	0.563	0.431	0.295	0.293	0.326	0.319	1.01	1.16	1.17	1.06	1.14	1.05	0.896	0.766	0.859	0.936	0.282
CAL-12T	0.263	0.289	0.329	0.333	0.286	0.647	0.583	0.572	0.557	0.331	0.337	0.37	0.412	0.318	0.776	0.979	0.549	0.894	0.841	0.636
COR-L23	0.196	0.224	0.188	0.215	0.187	0.744	0.782	0.71	0.737	0.569	0.587	0.575	0.549	0.679	0.98	0.959	0.945	1.03	0.902	0.811
COR-L 105	0.293	0.315	0.402	0.309	0.333	0.631	0.784	0.623	0.843	0.378	0.49	0.417	0.395	0.402	0.889	0.975	0.869	1.15	1.05	0.82
Calu-6															0.905	0.906	0.901	1.12	0.948	
ChaGo-K-1	0.227	0.217	0.261	0.204	0.227	0.485	0.543	0.622	0.47	0.883	0.884	0.912	0.769	0.855						0.541
EBC-1															0.956	0.923	0.747	1.16	0.845	
EKVX	0.394	0.436	0.389	0.369	0.348	0.684	0.68	0.707	0.695	0.38	0.366	0.288	0.298	0.319	1.05	1.06	0.731	0.922	1.05	0.659
EMC-BAC-2	0.278	0.33	0.285	0.274	0.261	0.365	0.512	0.381	0.421	0.822	0.874	0.898	0.91	0.807	0.803	0.843	0.782	0.858	0.797	0.413
EPLC-272H	0.192	0.245	0.358	0.261	0.253	0.3	0.286	0.289	0.32	0.263	0.288	0.304	0.278	0.299	1.24	1.22	1.1	1.12	1.09	0.311
H3255	0.734	0.737	0.718	0.711	0.604	0.52	0.73	0.613	0.564	0.621	0.629	0.549	0.632	0.588	1.07	0.945	0.783	1.1	0.951	0.605
HARA	0.111		0.112	0.0991	0.102	0.59	0.547	0.407	0.524	0.846	0.636	0.627	0.771	0.752	0.84	0.993	0.959	1.04	1.11	0.542
HCC-15	0.257	0.323	0.416	0.223	0.321	0.629	0.723	0.616	0.637	0.34	0.397	0.362	0.386	0.387	0.949	0.794	0.913	0.901	0.901	0.676
HCC-44	0.965	1.13	1.17	1.01	0.889	0.484	0.597	0.377	0.683	1.04	1.16	1.02	0.939	0.967	0.663	0.684	0.65	0.669	0.696	0.586
HCC-78	0.413	0.329		0.44	0.398	0.39	0.375	0.722	0.44	0.708	0.891	0.633	0.768	0.8	0.67	0.556		0.486	0.542	0.385
HCC-366	0.153	0.395	0.195	0.121	0.102	0.727	0.975	0.886	0.894	0.284	0.386	0.31	0.297	0.302	0.641	0.682	0.641	0.597	0.783	0.847

Cell Line	relative viability (Zosuquidar + Tozasertib; first compound 0.01 µM)	relative viability (Zosuquidar + Tozasertib; first compound 0.03162 µM)	relative viability (Zosuquidar + Tozasertib; first compound 0.1 µM)	relative viability (Zosuquidar + Tozasertib; first compound 0.3162 µM)	relative viability (Zosuquidar + Tozasertib; first compound 1 µM)	relative viability (Kobe2602 + OSI-027; first compound 0.2 µM)	relative viability (Kobe2602 + OSI-027; first compound 0.6325 µM)	relative viability (Kobe2602 + OSI-027; first compound 2 µM)	relative viability (Kobe2602 + OSI-027; first compound 20 µM)	relative viability (Kobe2602 + Trametinib; first compound 0.2 µM)	relative viability (Kobe2602 + Trametinib; first compound 0.6325 µM)	relative viability (Kobe2602 + Trametinib; first compound 2 µM)	relative viability (Kobe2602 + Trametinib; first compound 6.325 µM)	relative viability (Kobe2602 + Trametinib; first compound 20 µM)	relative viability (Zosuquidar + Linsitinib; first compound 0.01 µM)	relative viability (Zosuquidar + Linsitinib; first compound 0.03162 µM)	relative viability (Zosuquidar + Linsitinib; first compound 0.1 µM)	relative viability (Zosuquidar + Linsitinib; first compound 0.3162 µM)	relative viability (Zosuquidar + Linsitinib; first compound 1 µM)	relative viability (Kobe2602 + OSI-027; first compound 6.325 µM)
HCC-827	0.413	0.369	0.401	0.386	0.386	0.787	0.743	0.755	0.718	0.546	0.546	0.571	0.537	0.558	1	0.902	0.943	0.879	0.96	0.762
HOP-62	0.363	0.312	0.396	0.341	0.308	0.829	0.992	0.826	0.844	0.446	0.39	0.355	0.415	0.415	0.834	1.12	1.13	0.886	0.991	0.854
IA-LM															0.671	0.766	0.334	0.654	0.624	
LC-2-ad	0.461	0.491	0.51	0.522	0.463	0.775	0.823	0.824	1.02	0.931	0.895	0.849	0.936	0.89	0.776	0.857	0.873	0.797	0.895	0.865
LCLC-97TM1	0.202	0.266	0.167	0.208	0.212	0.475	0.488	0.551	0.584	0.184	0.186		0.207	0.257	0.204	0.177		0.174	0.171	0.556
LCLC-103H	0.388	0.462	0.445	0.462	0.496	0.466	0.539	0.492	0.497	0.651	0.731	0.674	0.73	0.644	1.13	1.17	1.05	0.912	1.03	0.448
LK-2	0.171	0.163	0.174	0.172	0.183	0.231	0.208	0.239	0.212	0.839	0.856	0.744	0.631	0.852	0.663	0.745	0.515	0.722	0.574	0.248
LOU-NH91	0.697	0.624		0.706	0.71	0.739	0.786	0.69	0.71	0.763	0.793	0.739	0.793	0.821	0.937	0.927	0.736	1.03	0.913	0.754
NCI-H522	0.536	0.537	0.585	0.601	0.556	0.856	0.687	0.737	0.672	0.9	0.947	0.736	0.742	0.723						0.636
NCI-H1299															1.03	0.955	0.967	0.992	0.959	
NCI-H1563						0.721	0.743	0.797	0.754						1.22	1.29	1.13	1.2	1.26	0.757
NCI-H1623	0.43	0.33	0.435	0.421	0.407	0.457	0.448	0.424	0.433											0.374
NCI-H1648	0.602		0.316	0.497	0.562	0.246	0.277	0.248	0.25	0.474	0.488	0.465	0.457	0.408						0.26
NCI-H1650	0.43	0.426	0.478	0.469	0.371	0.546	0.756	0.546	0.676	0.724	0.525	0.59	0.536	0.586						0.631
NCI-H1703															1.13	0.979	0.543	1.57	0.74	
NCI-H1792						0.728	0.732	0.821	0.625	0.445	0.446	0.401	0.564	0.366	0.545	0.438	0.431	0.572	0.579	0.5
NCI-H2170	0.788	0.733	0.825	0.622	0.738	0.736	0.755	0.7	0.791	0.982	0.918	0.921	0.878	0.922						0.658
NCI-H2342	0.499	0.468	0.55	0.608	0.597	0.762	0.546	0.614	0.632	0.741	0.84	0.794	0.68	0.84						0.63
SW 900	0.581	0.583	0.573	0.665	0.473	0.712	0.477	0.499	0.488	0.959	0.745	0.807	0.677	0.548						0.374
